Here are results for 4 compounds from US6001810A, “Methods for treating retroviral infection” (Eli Lilly and Company, priority 1990, dated 1999).

Values after ≈ are worked out from the molar mass of the structure shown. Values joined by “and” are separate entries in the source; they are usually repeats but may differ in a detail not shown here. Equal values may be shown once. Non-standard residues stand in square brackets, D forms with d. Residues, ends and D or L forms follow the SMILES beside them. Phe(4-NH2) = Nc1ccc(C[C@H](N)C(=O)O)cc1; 1Nal = N[C@@H](Cc1cccc2ccccc12)C(=O)O; Sta = CC(C)C[C@H](N)[C@@H](O)CC(=O)O Some results are limits rather than exact numbers.

For one data set, the system named is Mo-MuLV. The experiment in a line: Moloney Murine Leukemia Virus Assay, CPE inhibition in SC-1/XC cells. It counts as cell-based. On the set-up: key: 4+(>90%); 3+(>60%); 2+(>40%); 1+(>20%); -(Negative). Here is the method:
(§1) About 3 to 5×10^3 SC-1 cells (available from the American Type Culture Collection, Rockville, Md. under the accession number ATCC CRL-1404) per well of a 96-well microtiter plate were seeded in minimal essential medium supplemented with 5% fetal bovine serum, penicillin (150 U/ml), Streptomycin (150 μg/ml) and polybrene (2 μg/ml), then infected with Mo-MuLV (Multiplicity of Infection=10 PFU/cell) the next day. The virus was allowed to adsorb to the cells for 1 hour, then medium containing serial dilutions of P-7, P-9 or medium alone was added to the cells. Pepstatin A ([…]-Val-Val-Statine-Ala-Statine) and AZT (3'-Azido-3'-deoxythymidine) were also added as controls. After incubation for 5 days (when cells were confluent) the SC-1 cells were UV irradiated for 10 seconds and 5 to 8×10^4 XC cells (ATCC CCL-165) per well were added. Generally, about two additional days of incubation were required to obtain full virus-induced cytopathic effect.

Data set [1] relates to HTLV-IIIB strain of HIV-1. The experiment in a line: Inhibition of HIV-1 cytopathic effect in CEM cells (XTT). The following applies: for IC25 (concentration that reduced CPE by 25%): Table V first column. It counts as cell-based. Here is the method: (§2) Quantitative evaluation of the viral inhibition were performed on the T-cell lymphoblastoid cell lines MT-2 (Harada et al., 1985, Science 229:563-566) and CEM (Nara and Fischinger, 1988, Nature 332:469-470). The cells were infected with the HTLV-IIIB strain of HIV-1 from the supernatant fluid of infected human T-lymphocyte cell line H9 (Popovic, M. et al., 1984, Science 224:497-500). Each of these three cell lines are publicly available from the National Institutes of Health (NIH) AIDS Research and Reference Reagent Program. The H9/HTLC-IIIB cell line is available under catalogue number 231, while CEM cell line is available under catalogue number 117 and the MT-2 cell line is available under the catalogue number 237. MT-2 and CEM cells were grown in RPMI 1640 medium supplemented with 10% (v/v) fetal calf serum, 100 U/ml penicillin, 100 μg/ml streptomycin and 25 mM HEPEs buffer. H9 cells were grown in the same medium except 20% fetal calf serum was used. The peptides were diluted in the medium used for MT-2 and CEM cells. Cell cultures were maintained in disposable tissue culture labware at 37° C. in a humidified atmosphere of 5% CO2 in air.
(§3) The inhibitors were dissolved in DMSO at 40 mg/ml or sterile water at 2 mg/ml, then dilutions were made in medium. The dilutions were added to micro-titer plates in 100 μl/well aliquots so that the high drug concentration for each screen was 100 μg/ml after the addition of cells to the well.
(§4) Susceptible MT-2 and CEM cells were grown and the cell population determined by a trypan blue viable cell count. The desired total number of cells were placed in a sterile, disposable 50 ml conical centrifuge tube and virus was added to give an MOI (Multiplicity of Infection) of 0.03 TCID50 /cell (Tissue Culture Infectious Dose) on MT-2 cells and approximately 0.12 TCID50 /cell on CEM cells. Fresh medium was added to adjust the cell density to 1×10^5 cells/ml, then the virus-cell suspension was incubated at 37° C. for 1 to 2 hours until plating. Uninfected controls cell were prepared in the same manner but without the addition of virus. Infected and uninfected cells were added to plates in 100 μl/well aliquots to give a starting cell number of 1×10^4 cells/well. The plates were incubated for seven days in a humidified atmosphere of 5% CO2 in air.
Reagents for colorimetric evaluation of cell viability were prepared by mixing the tetrazolium reagent, XTT, and phenazine methosulfate (PMS) to final concentrations of 200 μg/ml and 0.02 mM, respectively. […] The plates were read with the sealers in place in a Vmax Plate Reader® at 450 nm and 650 nm. The cytopathic effect (CPE) and percentage of cell viability were then calculated. […]
In general terms: Protection from cytopathic effect is a common read-out in antiviral testing.

The subject of a further data set is CEM cells. The format is cell-based. Here is the method: as §2, §3, §4
Reagents for colorimetric evaluation of cell viability were prepared by mixing the tetrazolium reagent, XTT, and phenazine methosulfate (PMS) to final concentrations of 200 μg/ml and 0.02 mM, respectively. Fifty microliters of the XTT-PMS solution was added to each well of the microtiter plates, then the plates were incubated in the CO2 incubator for another four hours. The lids were removed from the plates and replaced with adhesive plate sealers. The plates were read with the sealers in place in a Vmax Plate Reader® at 450 nm and 650 nm. The cytopathic effect (CPE) and percentage of cell viability were then calculated.
The activity and cytotoxicity of several other peptides were also assayed in CEM cells using the same procedure as described above. These assays also included toxicity and activity levels of both 25% and 50%.

Data set [2] deals with complex of Friend's Spleen-Forcus Virus (Fr. SFFV) and Friend's Murine Leukemia Virus (F. MLV). In words: In vivo inhibition of Friend Virus Complex in DBA/2 mice. Set-up: Spleen / Inhibition % (spleen): dose or concentration left out as unconfirmed. To be noted: individual infected DBA/2 mice. Here is the method: Formulations of peptides P-9 and P-7 were prepared for injection into DBA/2 mice. The formulations were prepared by dissolving the purified peptides in Emulphor™ EL620 which was purchased from the GAF Chemical Corporation, 1361 Alps Row, Wayne, N.J., 07470. The drugs were injected intraperitoneally one hour before the mice were infected with a complex of Friend's Spleen-Forcus Virus (Fr. SFFV) and Friend's Murine Leukemia Virus (F. MLV). These viruses ordinarily cause polycythermia (elevated levels of red blood cells) and splenomegaly (enlargement of spleen) within two to three week post-infection. The mice were injected twice daily with the inhibitor formulation for twenty days after the infection.
*Drugs were dissolved in Emulphor ™, injected IP one hour before
infection, then twice daily for 20 days.
^a Titers of Fr.MLV in the spleens (supernatents of 10% homogenates)
were determined by XC plaque assay.

The next data set relates to MLV. The experiment in a line: MLV XC Plaque Reduction Assay - Virus Yield. It counts as cell-based, Murine Leukemia Virus. Here is the method:
as §1
The assay described above was also preferred to determine the virus yield. In this experiment, the supernatents were removed from the SC-1 cells four days after infection and tested for MLV titers, using the XC-plaque assay as previously described.
(In a plaque reduction assay, fewer plaques than in the control indicate reduced infectivity or spread.)

The subject of data set [3] is HTLV-IIIB strain of HIV-1. The experiment in a line: Inhibition of HIV-1 cytopathic effect in MT-2 cells (XTT). It counts as cell-based. The following applies: 7 days. Here is the method: as §2, with “H9 cells were grown in the same medium except 20% fetal calf serum was used. The peptides were diluted in the medium used for MT-2 and CEM cells. Cell cultures were maintained in disposable tissue culture labware at 37° C. in a humidified atmosphere of 5% CO2 in air.” left out
Susceptible MT-2 and CEM cells were grown and the cell population determined by a trypan blue viable cell count. […]
(§5) Reagents for colorimetric evaluation of cell viability were prepared by mixing the tetrazolium reagent, XTT, and phenazine methosulfate (PMS) to final concentrations of 200 μg/ml and 0.02 mM, respectively. […] The plates were read with the sealers in place in a Vmax Plate Reader® at 450 nm and 650 nm. The cytopathic effect (CPE) and percentage of cell viability were then calculated.

The test system of another data set is MT-2 cells. The format is cell-based. Here is the method:
as §2, §3, §4, §5

As a reminder, the inhibition is the change of the read-out against control, counted positive when it falls. Turning to `Cc1cn([C@H]2C[C@H](N=[N+]=[N-])[C@@H](CO)O2)c(=O)[nH]c1=O` [AZT, 3'-Azido-3'-deoxythymidine], the CPE inhibition score result is “-” in the data set on Mo-MuLV (.0004 μg/ml); “-” with Mo-MuLV (.0008 μg/ml); 2+ (2+(>40%)) in the data set on Mo-MuLV (.003 μg/ml); 3+ (3+(>60%)) in the data set on Mo-MuLV (.006 μg/ml); 4+ (4+(>90%)) in the data set on Mo-MuLV (.012 μg/ml); 1+ (1+(>20%)) in the data set with Mo-MuLV (.015 μg/ml). In addition, the CPE inhibition score in the data set with Mo-MuLV (.025 μg/ml), in the data set on Mo-MuLV (.05 μg/ml), in the data set with Mo-MuLV (.1 μg/ml) and in the data set on Mo-MuLV (.2 μg/ml) was 4+ (4+(>90%)) in each case. Besides, the IC50 in data set [1] (Human immunodeficiency virus 1, IIIB, CCRF-CEM, Table V, read-out: IC50 (concentration that reduced CPE by 50%)) was under 0.0032 µg/mL. In data set [1], the “IC25 (concentration that reduced CPE by 25%)” value was under 0.0032 µg/mL. The “Maximum inhibition reached (CPE)” value in data set [1] (inhibition decreased as drug concentration increased) is on record as 60%. Moreover, in the data set with CEM cells, the “IC25 (Table V)” value was over 1.0 µg/mL. Besides, the “TC50 (concentration that reduced cell viability by 50%)” value with CEM cells is over 1.0 µg/mL. Further, the “Inhibiton % (virus titer)” value in data set [2] (100 pg IP twice daily for 20 days) is > 99% and 95%. Moreover, the “Virus Titer (Fr.MLV in the spleens, XC plaque assay)” value in data set [2] (100 pg IP twice daily for 20 days, supernatents of 10% homogenates) is 500 PFU/ml and 20,000 PFU/ml. For the same compound, the Spleen in data set [2] (IP one hour before infection, then twice daily for 20 days) is 0.17 gm and 0.21 gm. The “Inhibition % (spleen)” value in data set [2] (IP twice daily for 20 days) was 85% and 81%. Further, the Yield in the data set on MLV (3.125 ng/ml) is given as 2.9 × 10^4 PFU/ML; in the data set with MLV (6.25 ng/ml), 80 PFU/ML; in the data set on MLV (12.5 ng/ml) it was under 10 PFU/ML; in the data set on MLV (25 ag/ml), under 10 PFU/ML. Further, the “% Inhibition (virus yield)” value in the data set on MLV (25 ag/ml) is over 99%. In the data set on MLV (Murine leukemia virus, 3.125 ng/ml), the inhibition at 0.003125 µg/mL worked out at 98%. This compound also displayed an inhibition at 0.00625 µg/mL in the data set with MLV (Murine leukemia virus, 6.25 ng/ml) of over 99%. Moreover, the inhibition at 0.0125 µg/mL with MLV (Murine leukemia virus, 12.5 ng/ml) is over 99%.

Consider `Nc1ccn([C@H]2CC[C@@H](CO)O2)c(=O)n1` [DDC, 2', 3Dideoxycytidine], for which the “ID50 (minimum drug concentration that inhibited CPE by 50%)” value in data set [3] was 0.11 µg/mL and 0.10 µg/mL. Moreover, the “IC25 (concentration that reduced CPE by 25%)” value in data set [1] stood at 0.0032 µg/mL (≈ 0.0152 µM). Besides, in the data set with CEM cells, the “IC25 (Table V)” value is 0.04 µg/mL (≈ 0.189 µM) and the “TC50 (concentration that reduced cell viability by 50%)” value amounted to 0.8 µg/mL (≈ 3.79 µM). Further, in the data set with MT-2 cells, the “MTC50 (minimum cytotoxic drug concentration that reduces cell viability to 50%)” value was over 10 µg/mL.

As to `CC(=O)N[C@@H](Cc1cccc2ccccc12)C(=O)N1CCC[C@H]1C(=O)N[C@@H](Cc1ccccc1)C(=O)N[C@H](C(=O)N[C@@H](CC(C)C)[C@@H](O)CC(=O)N[C@@H](CC(C)C)C(=O)N[C@@H](Cc1ccccc1)C(N)=O)C(C)C` [P-7, Ac NA Pro Phe Val Statine Leu Phe NH2] (Ac-[1Nal]PFV[Sta]LF-NH2), in the data set on CEM cells, the “IC25 (Table V)” value is over 10 µg/mL, the “MTC50 (minimum cytotoxic drug concentration that reduces cell viability to 50%)” value is 21 µg/mL and the “TC50 (concentration that reduced cell viability by 50%)” value is over 10 µg/mL. For the same compound, the “MTC50 (minimum cytotoxic drug concentration that reduces cell viability to 50%)” value in the data set on MT-2 cells stood at 24.4 µg/mL.

With `CC(C)C[C@H](NC(=O)C[C@H](O)[C@H](CC(C)C)NC(=O)[C@@H](NC(=O)[C@H](Cc1ccccc1)NC(=O)[C@@H]1CCCN1C(=O)[C@@H](N)Cc1c[nH]cn1)C(C)C)C(=O)N[C@@H](Cc1ccccc1)C(=O)N[C@@H](Cc1ccc(N)cc1)C(N)=O` [P-15, H-His Pro Phe Val Statine Leu Phe paF NH2] (H-HPFV[Sta]LF[Phe(4-NH2)]-NH2), the “MTC50 (minimum cytotoxic drug concentration that reduces cell viability to 50%)” value in the data set with CEM cells and in the data set with MT-2 cells was over 100 µg/mL in each case.
